Legend:
[1] = system: Rheb localisation in PA-TU-8902 cells; assay: Immunofluorescence staining of Rheb; type: cell-based, human; details: 5 µM, overnight
Method: Immunostaining: compound-treated PA-TU-8902 cells were washed once with cold PBS, fixed with 3.7% paraformaldehyde in PBS by incubation at room temperature for 10 min and permeabilised with 0.3% Triton X-100 in PBS by incubation at room temperature for 15 min. […] After washing with PBS-T three times, PBS-incubated cells were imaged with Observer Z1 (Carl Zeiss, Germany) with a 63× oil objective.

BxPC-3 cells = assay: Real-time cell analysis (Incucyte) of proliferation; type: cell-based, human; details: Homo sapiens, 72 h, read-out: cellular IC50
Method: (§1) Real-time cell analysis (RTCA) was conducted using an Incucyte S3 live-cell analysis system (Sartorius AG, Germany). […] Following attachment overnight, the medium was replaced with fresh medium containing test compounds, with all conditions adjusted to contain 0.5% DMSO. […] Phase-contrast images (2 images per well) were automatically captured at 2-h intervals until control wells (DMSO-treated) reached full confluency. Cell growth was quantified using the instrument’s integrated Basic Analyser module by applying a confluence mask to calculate the percentage of phase area confluence. […] Dose-response curves were generated and fitted via four-parameter variable slope nonlinear regression to determine cellular IC₅₀ values.

MIA PaCa-2 cells = assay: as above; type: cell-based, human
Method: as §1

NCI-H358 cells = assay: as above; type: cell-based, human; details: Homo sapiens, NCI-H358, 72 h, NCI-H358; 72 h; read-out: cellular IC50
Method: as §1

PA-TU-8902 cells = assay: as above; type: cell-based, human
Method: as §1

SW480 cells = assay: as above; type: cell-based, human; details: Homo sapiens, 72 h, read-out: cellular IC50
Method: as §1

HAP1 PDEδ knockout cells = assay: Relative growth after 72 h; type: cell-based; details: 0 - 50 µM
Method: as §1

Mouse plasma stability = type: in vitro ADME; details: 50% mouse plasma in PBS, within an hour
Excerpt: plotted as mean ± standard deviation, representative of 3 technical replicates ( N = 3). Unpaired, two-
Data were plotted as mean ± standard deviation, representative of 3 technical replicates in the presence

[2] = molecular target: PDEδ in Jurkat cell lysates (Homo sapiens, UniProt O43924); assay: In-lysate covalent modification of PDEδ (anti-PDEδ immunoblot band shift)
PDEδ [3] = molecular target: T1, PDEδ (Homo sapiens, UniProt O43924); assay: Competitive fluorescence polarisation assay (FA probe displacement); type: binding; set-up: His tag; made in house; host or cells: Escherichia coli Rosetta (BL21DE3), pET plasmids
PDEδ [4] = molecular target: T1, PDEδ; assay: Mass spectrometry analysis of PDEδ adducts after Glu-C digestion; type: binding; set-up: His tag; made in house; host or cells: Escherichia coli Rosetta (BL21DE3), pET plasmids; details: LC-MS/MS, 10:1 compound to protein
Method: For each replicate, 1.5 µg covalent adduct of PDEδ sample in PBS buffer was denatured, reduced, alkylated and digested by Glu-C and desalted, together with a negative control of unbound vehicle-treated PDEδ sample prior to mass spectrometry analysis. […] The final mixture containing 6.5 M guanidine hydrochloride was heated at 95 °C for 15 min. Subsequently, after cooling, 0.5 µl of a 50 mM dithiothreitol (DTT, cas 3483-12-3, Gerbu Biotechnik, #1008-100 g) solution was added. […] . Samples were incubated at 37 °C overnight with shaking at 400 rpm, protected from light. […] Desalting was carried out with stage tips with C18 extraction discs (Empore^TM high performance extraction discs, 47 mm, 3 M Bioanalytical Technologies #2215). Each stage tip, which consists of two stacked layers of C18 discs, was activated with methanol (100 µl), washed once with buffer B (100 µl, 0.1% formic acid, 80% acetonitrile), and twice with buffer A (100 µl/time, 0.1% formic acid). After sample loading and washing with buffer A once, the desalted sample was eluted with buffer B (20 µl/sample) and centrifuged at 500×g at room temperature for 5 min. Eluted samples were then dried in a SpeedVac at 30 °C.
Data evaluation was performed using MaxQuant software (v.2.2.0.0)[52]. […] Cleavages by Glu-C were analysed based on the enzyme that was used for digestion. […]

In the case of `Cc1ccc(-n2nc3c(=O)n(CCCCS(=O)(=O)N(CCc4cccc(CCBr)c4)CC4CCNCC4)nc(C)c3c2C)cc1` [6a], the “cellular Rheb distribution” value [1] is reported as “visible and sustained redistribution of Rheb to endomembranes”, the IC50 (BxPC-3 cells) is reported as 20 ± 1.3 µM and the “% Growth rate of MIA PaCa-2 cells” value (MIA PaCa-2 cells; 25 µM) is reported as 15%. The “% Growth rate of MIA PaCa-2 cells” value (MIA PaCa-2 cells; 50 µM) was 15%, the IC50 (MIA PaCa-2 cells; Homo sapiens, MIA PaCa-2, 72 h, read-out: cellular IC50) was 7 ± 0.4 µM and the “difference in cellular potency vs Deltazinone 1” value (MIA PaCa-2 cells; MIA PaCa-2) was > 7 fold. For the same compound, the IC50 (NCI-H358 cells) was 6.3 ± 3.5 µM, the “% Growth rate of PA-TU-8902 cells” value (PA-TU-8902 cells; 25 µM) was 16% and the “% Growth rate of PA-TU-8902 cells” value (PA-TU-8902 cells; 50 µM) was 26%. For the same compound, the IC50 (PA-TU-8902 cells; Homo sapiens, PaTu 8902, PA-TU-8902, 72 h, read-out: cellular IC50) was 6.8 ± 0.5 µM, the IC50 (SW480 cells) was 18.6 ± 3 µM and the “growth impairment of HAP1 PDEδ knockout cells compared to HAP1 wild type cells” value (HAP1 PDEδ knockout cells) was “less pronounced”. The “stability in mouse plasma” value (Mouse plasma stability) was “stable in mouse plasma”, the “in-lysate covalent modification of PDEδ on anti-PDEδ immunoblot” value ([2]; 10 µM for 2 h) was “upward shift of the band indicates covalent binding” and the “Estimated % PDEδ labelling” value ([2]; 10 µM, 15 min) was 33%. The “Estimated % PDEδ labelling” value ([2]; 10 µM, 15 min, listed as DeltaTag) was “approximately 33%”, the “Estimated % PDEδ labelling” value ([2]; 10 µM, 30 min) was 55% and the “Estimated % PDEδ labelling” value ([2]; 10 µM, 60 min) was 60%. The “time to estimated full labelling of PDEδ” value ([2]; 50 µg cell lysates, 10 µM) was ≤ 2 h, the IC50 (PDEδ [3]; 37 °C overnight) was 0.0065 ± 0.0035 µM and the IC50 (PDEδ [3]; PDEδ 40 nM, FA probe 24 nM, room temperature overnight) was 0.0152 ± 0.0086 µM. For the same compound, the “site of covalent modification in PDEδ” value (PDEδ [4]) was “either at p.E88 or p.E89”.

From PMC12864978, “Covalent modification of a glutamic acid inspired by HaloTag technology” (Nature Communications, 2026)
